Results on one molecule are retold here after US9056847B2, “Activity based probes (ABPs) interacting with glycosidases” (ACADEMISCH MEDISCH CENTRUM BIJ UNIVERSITEIT VAN AMSTERDAM, priority 2010, dated 2015).

SMILES strings stand for the structures.

The target in this assay is GBA1 (Homo sapiens (Human), UniProt P04062). The assay is described as follows: Kinetic constants of GBA1 inhibition (Table 2). The class given is biochemical. To be noted: Table 2 kinetic constants.
Sequence of GBA1 (P04062 40-536): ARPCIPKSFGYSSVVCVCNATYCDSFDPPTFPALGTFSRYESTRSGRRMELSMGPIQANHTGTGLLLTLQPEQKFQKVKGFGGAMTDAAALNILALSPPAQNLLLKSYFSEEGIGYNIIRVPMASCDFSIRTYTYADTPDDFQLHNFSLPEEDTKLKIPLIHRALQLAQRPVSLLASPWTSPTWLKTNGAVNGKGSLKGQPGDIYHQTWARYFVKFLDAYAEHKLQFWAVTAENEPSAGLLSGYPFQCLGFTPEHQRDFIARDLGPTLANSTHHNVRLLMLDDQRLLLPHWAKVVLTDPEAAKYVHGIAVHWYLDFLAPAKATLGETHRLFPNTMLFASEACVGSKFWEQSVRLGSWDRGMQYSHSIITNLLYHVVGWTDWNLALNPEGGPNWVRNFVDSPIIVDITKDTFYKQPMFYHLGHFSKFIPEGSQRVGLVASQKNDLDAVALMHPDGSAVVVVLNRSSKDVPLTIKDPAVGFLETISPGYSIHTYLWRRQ

`[N-]=[N+]=NC[C@@H]1[C@@H](O)[C@H](O)[C@@H](O)[C@@H]2O[C@H]12` [KY170, (2S,3R,4S,5S)-8-azido-8-deoxy-cyclophellitol] gave a ki of 0.0237 min⁻¹.
